From US20240101531A1, “PYRIDINAMINE DERIVATIVES AND THEIR USE AS POTASSIUM CHANNEL MODULATORS” (Xenon Pharmaceuticals Inc., priority 2022, published 2024)
Counter-ions that a name gives are not always drawn.

Each compound was assayed against human KV7.2/KV7.3 (Homo sapiens (Human), UniProt O43525+O43526) (assay: Potassium flux assay (IPG-2 AM dye)). Settings: TREX HEK 293 or HEK 293 cells expressing human KV7.2/KV7.3; arithmetic mean values.
Format: cell-based
From the text: This potassium flux assay employs the cell-permeable, potassium-sensitive dye, IPG-2 AM, to quantify potassium ion flux through potassium channels.
In general, TREX HEK 293 or HEK 293 cells were stably transfected with either an inducible or non-inducible expression vector containing the full-length cDNA coding for the desired human KV7.2/KV7.3 or in combination with another full-length cDNA for a second desired human KV7 potassium channel. Potassium channel-expressing cell lines were induced with tetracycline (1 μg/mL), if required, and plated on 384-well poly-D-lysine (PDL)-coated plates in culture media (DMEM, containing 10% FBS and 1% L-glutamine). After overnight incubation, culture media was removed and cells were loaded with 5 μM IPG-2 AM dye for 1 hour in Assay buffer (140 mM NaCl, 20 mM RbCl, 2 mM CaCl2, 1 mM MgCl2, 10 mM HEPES (4-(2-hydroxyethyl)-1-piperazineethanesulfonic acid buffer), 10 mM glucose, adjusted with Tris to pH 7.4). Excess dye was removed, and cells incubated at room temperature for 20 minutes with or without test compound. A Hamamatsu FDSS μCell was used to perform a 1:1 addition of K challenge buffer (150 mM NaCl, 10 mM HEPES, 2 mM CaCl2, 10 mM KCl, 1 mM MgCl2, 10 mM glucose, adjusted with Tris to pH 7.4 for human KV7.2/KV7.3, and simultaneously read plates at excitation wavelength of 530 nm and emission wavelength of 558 nm. Non-potassium channel-mediated potassium influx was determined in the presence of DMSO, and maximal influx was determined in the presence of a known KV7.x channel modulator. For each test compound, a concentration response curve was generated with 16 concentrations points, 2-fold serial dilution starting at 30 μM and an EC50 value was determined.

`CC1(C)CCC(COc2ccc3c(Nc4ccc(Cl)nc4)nccc3c2)O1` (centres unmarked) [Example 6, N-(6-chloropyridin-3-yl)-6-((5,5-dimethyltetrahydrofuran-2-yl)methoxy)isoquinolin-1-amine] was tested. Which EC50 did it give?
Its EC50 is 1 to 10 µM.

With `FC(F)Oc1ccc2c(Nc3ccc(Cl)nc3)nccc2c1` [Example 7, N-(6-chloropyridin-3-yl)-6-(difluoromethoxy)isoquinolin-1-amine] as the compound, how does the EC50 read?
Its EC50 is 1 to 10 µM.

For `Clc1ccc(Nc2nccc3cc(Oc4ccccc4)ccc23)cn1` [Example 8, N-(6-chloropyridin-3-yl)-6-phenoxyisoquinolin-1-amine], which EC50 is on record?
The EC50 was 1 to 10 µM.

With `Clc1ncc(Nc2nccc3cc(OCC4CC4)ccc23)cn1` [Example 9, N-(2-chloropyrimidin-5-yl)-6-(cyclopropylmethoxy)isoquinolin-1-amine] as the compound, how does the EC50 read?
Its EC50 is under 1 µM.

For `COC(=O)c1ccc2c(Nc3ccc(Cl)nc3)nccc2c1` [Example 10, methyl 1-((6-chloropyridin-3-yl)amino)isoquinoline-6-carboxylate], which EC50 is on record?
Its EC50 is 10 to 30 µM.

How did the EC50 turn out when `Clc1ccc(Nc2nccc3sccc23)cn1` [Example 11, N-(6-chloropyridin-3-yl)thieno[3,2-c]pyridin-4-amine formate] was run?
Its EC50 is 1 to 10 µM.

With `Clc1ccc(Nc2nccc3ccsc23)cn1` [Example 12, N-(6-chloropyridin-3-yl)thieno[2,3-c]pyridin-7-amine] as the compound, how does the EC50 read?
The EC50 was 1 to 10 µM.

With `Clc1ccc(Nc2nccc3scnc23)cn1` [Example 13, N-(6-chloropyridin-3-yl)thiazolo[4,5-c]pyridin-4-amine] as the compound, how does the EC50 read?
The EC50 was 1 to 10 µM.

For `Clc1ccc(Nc2nccc3cc[nH]c23)cn1` [Example 14, N-(6-chloropyridin-3-yl)-1H-pyrrolo[2,3-c]pyridin-7-amine], which EC50 is on record?
Its EC50 is 1 to 10 µM.

Which EC50 does the source give for `COc1cnc(Nc2ccc(Cl)nc2)c2[nH]ccc12` [Example 15, N-(6-chloropyridin-3-yl)-4-methoxy-1H-pyrrolo[2,3-c]pyridin-7-amine formate] here?
The EC50 was 1 to 10 µM.

`Clc1ccc(Nc2nccc3ccoc23)cn1` [Example 16, N-(6-chloropyridin-3-yl)furo[2,3-c]pyridin-7-amine formate] was tested. Which EC50 did it give?
The EC50 was 1 to 10 µM.

With `Cc1csc2c(Nc3ccc(Cl)nc3)nccc12` [Example 17, N-(6-chloropyridin-3-yl)-3-methylthieno[2,3-c]pyridin-7-amine] as the compound, how does the EC50 read?
Its EC50 is 1 to 10 µM.

How did the EC50 turn out when `Fc1ccc2c(Nc3ccc(Cl)nc3)nccc2c1` [Example 18, N-(6-chloropyridin-3-yl)-6-fluoroisoquinolin-1-amine formate] was run?
The EC50 was 1 to 10 µM.

Which EC50 does the source give for `COc1ccc2c(Nc3ccc(Cl)nc3)nccc2c1` [Example 19, N-(6-chloropyridin-3-yl)-6-methoxyisoquinolin-1-amine formate] here?
Its EC50 is 1 to 10 µM.

Which EC50 does the source give for `Cc1ccc2c(Nc3ccc(Cl)nc3)nccc2c1` [Example 20, N-(6-chloropyridin-3-yl)-6-methylisoquinolin-1-amine formate] here?
The EC50 was 1 to 10 µM.

For `Clc1ccc2c(Nc3ccc(Cl)nc3)nccc2c1` [Example 21, 6-chloro-N-(6-chloropyridin-3-yl)isoquinolin-1-amine], which EC50 is on record?
Its EC50 is 10 to 30 µM.

`Fc1cccc2c(Nc3ccc(Cl)nc3)nccc12` [Example 22, N-(6-chloropyridin-3-yl)-5-fluoroisoquinolin-1-amine] was tested. Which EC50 did it give?
The EC50 was 1 to 10 µM.

For `Fc1ccc2c(Nc3cnc(Cl)nc3)nccc2c1` [Example 23, N-(2-chloropyrimidin-5-yl)-6-fluoroisoquinolin-1-amine], which EC50 is on record?
The EC50 was 1 to 10 µM.

With `Cc1ncc(Nc2nccc3cc(OCC4CC4)ccc23)cn1` [Example 24, 6-(cyclopropylmethoxy)-N-(2-methylpyrimidin-5-yl)isoquinolin-1-amine] as the compound, how does the EC50 read?
The EC50 was 1 to 10 µM.

With `Cc1ncc(Nc2nccc3cc(OCC4CCOC4)ccc23)cn1` (centres unmarked) [Example 25, N-(2-methylpyrimidin-5-yl)-6-((tetrahydrofuran-3-yl)methoxy)isoquinolin-1-amine] as the compound, how does the EC50 read?
The EC50 was 1 to 10 µM.

For `Cc1ncc(Nc2nccc3cc(OCC(F)F)ccc23)cn1` [Example 26, 6-(2,2-difluoroethoxy)-N-(2-methylpyrimidin-5-yl)isoquinolin-1-amine], which EC50 is on record?
Its EC50 is 1 to 10 µM.

`Cc1ncc(Nc2nccc3cc(OCC4CCC(C)(C)O4)ccc23)cn1` (centres unmarked) [Example 27, 6-((5,5-dimethyltetrahydrofuran-2-yl)methoxy)-N-(2-methylpyrimidin-5-yl)isoquinolin-1-amine] was tested. Which EC50 did it give?
Its EC50 is 1 to 10 µM.

With `Cc1ccc(Nc2nccc3cc(OCC4CC4)ccc23)cn1` [Example 28, 6-(cyclopropylmethoxy)-N-(6-methylpyridin-3-yl)isoquinolin-1-amine] as the compound, how does the EC50 read?
Its EC50 is 1 to 10 µM.

How did the EC50 turn out when `CC(Oc1ccc2c(Nc3ccc(Cl)nc3)nccc2c1)C1CC1` (centres unmarked) [Example 29, N-(6-chloropyridin-3-yl)-6-(1-cyclopropylethoxy)isoquinolin-1-amine] was run?
Its EC50 is 1 to 10 µM.

`Clc1ccc(Nc2nccc3occc23)cn1` [Example 30, N-(6-chloropyridin-3-yl)furo[3,2-c]pyridin-4-amine formate] was tested. Which EC50 did it give?
Its EC50 is 1 to 10 µM.

With `Clc1ccc(Nc2nccc3cccnc23)cn1` [Example 31, N-(6-chloropyridin-3-yl)-1,7-naphthyridin-8-amine formate] as the compound, how does the EC50 read?
The EC50 was 1 to 10 µM.

How did the EC50 turn out when `Clc1ncc(Nc2nccc3cccnc23)cn1` [Example 32, N-(2-chloropyrimidin-5-yl)-1,7-naphthyridin-8-amine] was run?
The EC50 was 1 to 10 µM.

For `Clc1ccc(Nc2nccc3ccccc23)cn1` [Example 33, N-(6-chloropyridin-3-yl)isoquinolin-1-amine], which EC50 is on record?
Its EC50 is 1 to 10 µM.

Which EC50 does the source give for `CS(C)(=O)=Nc1ccc2c(Nc3ccc(Cl)nc3)nccc2c1` [Example 34, ((1-((6-chloropyridin-3-yl)amino)isoquinolin-6-yl)imino)dimethyl-λ^6-sulfanone] here?
Its EC50 is 1 to 10 µM.

How did the EC50 turn out when `Cc1cnc(Nc2ccc(Cl)nc2)c2[nH]ccc12` [Example 35, N-(6-chloropyridin-3-yl)-4-methyl-1H-pyrrolo[2,3-c]pyridin-7-amine] was run?
The EC50 was 1 to 10 µM.

How did the EC50 turn out when `COc1cc(Nc2nccc3cc(OCC4(C)COC4)ccc23)cnc1Cl` [Example 36, N-(6-chloro-5-methoxypyridin-3-yl)-6-((3-methyloxetan-3-yl)methoxy)isoquinolin-1-amine] was run?
Its EC50 is under 1 µM.

How did the EC50 turn out when `COCCOc1ccc2c(Nc3cnc(C)nc3)nccc2c1` [Example 37, 6-(2-methoxyethoxy)-N-(2-methylpyrimidin-5-yl)isoquinolin-1-amine] was run?
The EC50 was 10 to 30 µM.

Which EC50 does the source give for `Cc1ncc(Nc2nccc3cc(OCCOC4CC4)ccc23)cn1` [Example 38, 6-(2-cyclopropoxyethoxy)-N-(2-methylpyrimidin-5-yl)isoquinolin-1-amine] here?
The EC50 was 10 to 30 µM.

With `Clc1ccc(Nc2nccc3cc(OCCOC4CC4)ccc23)cn1` [Example 39, N-(6-chloropyridin-3-yl)-6-(2-cyclopropoxyethoxy)isoquinolin-1-amine] as the compound, how does the EC50 read?
The EC50 was 1 to 10 µM.

`N#CC12CC(COc3ccc4c(Nc5cnc(Cl)nc5)nccc4c3)(C1)C2` [Example 40, 3-(((1-((2-chloropyrimidin-5-yl)amino)isoquinolin-6-yl)oxy)methyl)bicyclo[1.1.1]pentane-1-carbonitrile] was tested. Which EC50 did it give?
The EC50 was under 1 µM.

Which EC50 does the source give for `CC(C)C1(COc2ccc3c(Nc4cnc(Cl)nc4)nccc3c2)COC1` [Example 41, N-(2-chloropyrimidin-5-yl)-6-((3-isopropyloxetan-3-yl)methoxy)isoquinolin-1-amine] here?
Its EC50 is under 1 µM.

How did the EC50 turn out when `CC1(COc2ccc3c(Nc4cnc(Cl)c(O)c4)nccc3c2)COC1` [Example 42, 2-chloro-5-((6-((3-methyloxetan-3-yl)methoxy)isoquinolin-1-yl)amino)pyridin-3-ol] was run?
Its EC50 is under 1 µM.

Which EC50 does the source give for `FC(F)c1ccc(Nc2nccc3cc(OCC4(F)CC4)ccc23)cn1` [Example 43, N-(6-(difluoromethyl)pyridin-3-yl)-6-((1-fluorocyclopropyl)methoxy)isoquinolin-1-amine] here?
Its EC50 is at least 30 µM.

For `CCc1ncc(Nc2nccc3cc(OCC4(F)CC4)ccc23)cn1` [Example 44, N-(2-ethylpyrimidin-5-yl)-6-((1-fluorocyclopropyl)methoxy)isoquinolin-1-amine], which EC50 is on record?
The EC50 was 10 to 30 µM.

For `Cc1ncc(Nc2nccc3cc(OCC4(F)CC4)ccc23)cc1Cl` [Example 45, N-(5-chloro-6-methylpyridin-3-yl)-6-((1-fluorocyclopropyl)methoxy)isoquinolin-1-amine], which EC50 is on record?
Its EC50 is at least 30 µM.

Which EC50 does the source give for `COc1ncc(Nc2nccc3cc(OCC4(F)CC4)ccc23)cn1` [Example 46, 6-((1-fluorocyclopropyl)methoxy)-N-(2-methoxypyrimidin-5-yl)isoquinolin-1-amine] here?
Its EC50 is 1 to 10 µM.

With `FC1(COc2ccc3c(Nc4ccc(C(F)(F)F)nc4)nccc3c2)CC1` [Example 47, 6-((1-fluorocyclopropyl)methoxy)-N-(6-(trifluoromethyl)pyridin-3-yl)isoquinolin-1-amine] as the compound, how does the EC50 read?
Its EC50 is at least 30 µM.

For `FC1(COc2ccc3c(Nc4cncc(Cl)c4)nccc3c2)CC1` [Example 48, N-(5-chloropyridin-3-yl)-6-((1-fluorocyclopropyl)methoxy)isoquinolin-1-amine], which EC50 is on record?
The EC50 was 1 to 10 µM.

`FC1(COc2ccc3c(Nc4cncnc4)nccc3c2)CC1` [Example 49, 6-((1-fluorocyclopropyl)methoxy)-N-(pyrimidin-5-yl)isoquinolin-1-amine] was tested. Which EC50 did it give?
Its EC50 is 1 to 10 µM.
